#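 Compound exposure: 48 hours, 5 concentrations, 96-well plates. Definition used: TGI = concentration required for complete inhibition of growth.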
# Legend:
# Assay in all cases: DTP human tumour cell line panel, 48 h
# [1] = test system: RXF 393 renal
# [2] = test system: MCF7 breast
# [3] = test system: UACC-62 melanoma
# [4] = test system: HOP-62 NSCLC
# [5] = test system: HT29 colon
# [6] = test system: KM12 colon
# [7] = test system: HCT-116 colon
# [8] = test system: CAKI-1 renal
# [9] = test system: NCI/ADR-RES ovarian
# [10] = test system: TK-10 renal
# [11] = test system: IGROV1 ovarian
# [12] = test system: A549 NSCLC
# [13] = test system: SW-620 colon
# [14] = test system: LOX IMVI melanoma
# [15] = test system: SN12C renal
# [16] = test system: CCRF-CEM leukemia
# [17] = test system: HOP-92 NSCLC
# [18] = test system: PC-3 prostate
# [19] = test system: OVCAR-5 ovarian
# [20] = test system: COLO 205 colon
# [21] = test system: 786-0 renal
# [22] = test system: HL-60(TB) leukemia
# [23] = test system: UO-31 renal
# [24] = test system: SK-OV-3 ovarian
# [25] = test system: HCC-2998 colon
# [26] = test system: NCI-H522 lung
# [27] = test system: OVCAR-3 ovarian
# [28] = test system: M14 melanoma
# [29] = test system: EKVX NSCLC
# [30] = test system: ACHN renal
# [31] = test system: NCI-H460 lung
# [32] = test system: SNB-19 CNS
# [33] = test system: A498 renal
# [34] = test system: SNB-75 CNS
# [35] = test system: NCI-H226 lung
# [36] = test system: OVCAR-4 ovarian
# [37] = test system: MDA-MB-231 breast
# [38] = test system: BT-549 breast
# [39] = test system: OVCAR-8 ovarian
# [40] = test system: HCT-15 colon
# [41] = test system: MALME-3M melanoma
# [42] = test system: K-562 leukemia
# [43] = test system: SK-MEL-28 melanoma
# [44] = test system: MDA-N
# [45] = test system: MOLT-4 leukemia
# [46] = test system: SF-539 CNS
# [47] = test system: SF-295 CNS
# [48] = test system: SR leukemia
# [49] = test system: HS 578T breast
# [50] = test system: DU-145 prostate
# [51] = test system: SF-268 CNS
# [52] = test system: SK-MEL-2 melanoma
# [53] = test system: NCI-H23 lung
# [54] = test system: MDA-MB-435
# [55] = test system: U251 CNS
# [56] = test system: UACC-257 melanoma
# [57] = test system: T-47D breast
# [58] = test system: SK-MEL-5 melanoma
# [59] = test system: RPMI-8226 leukemia
smiles,measurement,setting,value
CCN=c1nc2sc3c(c2c(NC(=S)NCC)s1)CCN(N1CCc2c(sc4nc(=NCC)sc(NC(=S)NCC)c24)C1)C3,TGI,[1],53.2 µM
same,TGI,[2],> 100 µM
same,TGI,[3],> 100 µM
same,TGI,[4],> 100 µM
same,TGI,[5],> 100 µM
same,TGI,[6],> 100 µM
same,TGI,[7],52.3 µM
same,TGI,[8],> 100 µM
same,TGI,[9],> 100 µM
same,TGI,[10],> 100 µM
same,TGI,[11],> 100 µM
same,TGI,[12],> 100 µM
same,TGI,[13],> 100 µM
same,TGI,[14],> 100 µM
same,TGI,[15],> 100 µM
same,TGI,[16],> 100 µM
same,TGI,[17],84.7 µM
same,TGI,[18],> 100 µM
same,TGI,[19],> 100 µM
same,TGI,[20],> 100 µM
same,TGI,[21],> 100 µM
same,TGI,[22],> 100 µM
same,TGI,[23],> 100 µM
same,TGI,[24],> 100 µM
same,TGI,[25],> 100 µM
same,TGI,[26],> 100 µM
same,TGI,[27],> 100 µM
same,TGI,[28],> 100 µM
same,TGI,[29],> 100 µM
same,TGI,[30],> 100 µM
same,TGI,[31],> 100 µM
same,TGI,[32],> 100 µM
same,TGI,[33],> 100 µM
same,TGI,[34],> 100 µM
same,TGI,[35],> 100 µM
same,TGI,[36],> 100 µM
same,TGI,[37],82.6 µM
same,TGI,[38],> 100 µM
same,TGI,[39],> 100 µM
same,TGI,[40],> 100 µM
same,TGI,[41],> 100 µM
same,TGI,[42],> 100 µM
same,TGI,[43],> 100 µM
same,TGI,[44],> 100 µM
same,TGI,[45],> 100 µM
same,TGI,[46],39.5 µM
same,TGI,[47],> 100 µM
same,TGI,[48],> 100 µM
same,TGI,[49],> 100 µM
same,TGI,[50],> 100 µM
same,TGI,[51],> 100 µM
same,TGI,[52],> 100 µM
same,TGI,[53],> 100 µM
same,TGI,[54],> 100 µM
same,TGI,[55],> 100 µM
same,TGI,[56],> 100 µM
same,TGI,[57],> 100 µM
same,TGI,[58],> 100 µM
O=c1c(=O)c2cscc2c1=O,TGI,[1],9.2 µM
same,TGI,[2],15.3 µM
same,TGI,[3],8.75 µM
same,TGI,[4],10.8 µM
same,TGI,[5],10.6 µM
same,TGI,[59],12.1 µM
same,TGI,[6],12.7 µM
same,TGI,[7],9.66 µM
same,TGI,[8],8.49 µM
same,TGI,[9],> 25 µM
same,TGI,[10],8.04 µM
same,TGI,[11],8.4 µM
same,TGI,[12],> 25 µM
same,TGI,[13],11.2 µM
same,TGI,[14],10 µM
same,TGI,[15],13.3 µM
same,TGI,[17],11.2 µM
same,TGI,[18],8.6 µM
same,TGI,[19],9.61 µM
same,TGI,[20],8.61 µM
same,TGI,[21],10.1 µM
same,TGI,[23],9.6 µM
same,TGI,[24],> 25 µM
same,TGI,[25],6.44 µM
same,TGI,[27],15.1 µM
same,TGI,[28],8.85 µM
same,TGI,[29],10.7 µM
same,TGI,[30],8.37 µM
same,TGI,[31],23.3 µM
same,TGI,[32],15.2 µM
same,TGI,[33],> 25 µM
same,TGI,[34],8.37 µM
same,TGI,[35],10.5 µM
same,TGI,[36],11.1 µM
same,TGI,[37],10 µM
same,TGI,[38],8.72 µM
same,TGI,[39],16.4 µM
same,TGI,[40],14.1 µM
same,TGI,[41],8.39 µM
same,TGI,[42],6.5 µM
same,TGI,[43],9.37 µM
same,TGI,[44],9.72 µM
same,TGI,[45],10 µM
same,TGI,[46],9.07 µM
same,TGI,[47],> 25 µM
same,TGI,[48],1.1 µM
same,TGI,[49],> 25 µM
same,TGI,[50],11.4 µM
same,TGI,[51],8.82 µM
same,TGI,[52],9.31 µM
same,TGI,[53],12.3 µM
same,TGI,[54],9.85 µM
same,TGI,[55],9.19 µM
same,TGI,[56],7.96 µM
same,TGI,[57],11.8 µM
same,TGI,[58],7.89 µM
